Results reported in patent US9006150B2, “Structural nucleic acid guided chemical synthesis” (Vipergen ApS, priority 2004, dated 2015).
“Also recorded” adds a separate entry of the source.

How the values were obtained:
[1] = tested on: 3E7 anti Leu-enkephalin monoclonal antibody; assay type: binding
[2] = tested on: W6/32 monoclonal antibody

Row | Substance | binding to 3E7 antibody (gel-shifted band) [1] | gel-shifted band with IgG2A isotype matched negative control antibody [2]
1 | Tyr-Gly-Gly-Phe-Leu-DNA [R1 product] | binding to 3E7 antibody; also recorded: specific binding | absent
2 | Gly-Leu-Phe-Tyr-Gly-DNA (GLFYG; DNA conjugate; printed: Gly-Leu-Phe-Tyr-Gly-) [R2 product, Structural DNA display product with scrambled Leu-enkephalin, negative control for the partitioning assay] | does not bind to 3E7 | –
